From patent publication US4381311A, “Antiinflammatory 4,5-diaryl-α-(polyhalomethyl)-2-thiophenemethanols” (E. I. Du Pont de Nemours and Company, priority 1981, dated 1983)

tested on: adjuvant-induced arthritis in rats; assay: Established adjuvant-induced arthritis in rats (paw volume of uninjected left hind paw); format: in vivo, Charles River Lewis male rats; settings: Rattus norvegicus, 168 h; oral gavage daily, 7 days; established adjuvant-induced arthritis, Lewis male rats; ED50% by inspection of dose-response regression lines; read-out: ED50% Decrease From Control Paw Volume
Description: A procedure for detecting and comparing the antiinflammatory activity of compounds in this series and standard drugs for which there is a good correlation with human efficacy is the adjuvant-induced arthritis test in rats.
The test procedure employed for determining antiinflammatory activity is described below.
ESTABLISHED ADJUVANT-INDUCED ARTHRITIS IN RATS
Charles River Lewis male rats (130-150 grams) are injected subcutaneously in plantar area of the right hind paw with 0.1 ml of adjuvant (Difco heat-killed, lyophilized Mycobacterium butyricum suspended in mineral oil 5 mg/ml). 20 Non-arthritic controls are injected with mineral oil. The animals are held for 2 weeks to allow development of arthritis. Paw volumes (uninjected, left hind paw) are measured and the adjuvant injected rats are culled and distributed to treatment groups of 10 of equal disease severity. Non-arthritic controls are distributed to 2 groups of 10. The rats are given oral doses of compound or PVA-Acacia (Polyvinyl Alcohol 1%, Gum Acacia, U.S.P. 5%, Methylparaben 0.5%) (10 ml/kg) by gavage on that day and on the 6 following days. One day after the last dose the paw volumes (uninjected, left hind paw) are measured using a Ugo Basile Volume Differential Meter Model 7101. [formula]
Dose-response regression lines of the % decrease are plotted on semi-log paper by visual fit and the ED50% decrease from control paw volume is determined by inspection.

For `OC(c1cc(-c2ccc(F)cc2)c(-c2ccc(F)cc2)s1)(C(F)(F)F)C(F)(F)F` [Example 1, 4,5-Bis(4-fluorophenyl)-α,α-bis(trifluoromethyl)-2-thiophenemethanol], which ED50 is on record?
The ED50 was 10 mg/kg.

Which ED50 does the source give for `COc1ccc(-c2cc(C(O)(C(F)(F)F)C(F)(F)F)sc2-c2ccc(SC)cc2)cc1` [Example 4, 4-(4-Methoxyphenyl)-5-(4-methylthiophenyl)-α,α-bis(trifluoromethyl)-2-thiophenemethanol] here?
The ED50 was 10 mg/kg.

`OC(c1cc(-c2ccc(F)cc2)c(-c2ccc(Cl)cc2)s1)(C(F)(F)F)C(F)(F)F` [Example 5, 5-(4-Chlorophenyl)-4-(4-fluorophenyl)-α,α-bis(trifluoromethyl)-2-thiophenemethanol] was tested. Which ED50 did it give?
Its ED50 is 9 mg/kg.

`OC(c1cc(-c2ccccc2)c(-c2ccccc2)s1)(C(F)(F)F)C(F)(F)F` [Example 6] was tested. Which ED50 did it give?
The ED50 was 21 mg/kg.

For `CC(O)(c1cc(-c2ccc(F)cc2)c(-c2ccc(F)cc2)s1)C(F)(F)F` (stereo not drawn) [Example 7, 4,5-Bis(4-fluorophenyl)-α-methyl-α-trifluoromethyl-2-thiophenemethanol], which ED50 is on record?
Its ED50 is 5.5 mg/kg.

`OC(c1cc(-c2ccc(F)cc2)c(-c2ccc(F)cc2)s1)(C(F)(F)Cl)C(F)(F)Cl` [Example 8, 4,5-Bis(4-fluorophenyl)-α,α-bis(chlorodifluoromethyl)-2-thiophenemethanol] was tested. Which ED50 did it give?
The ED50 was 4.5 mg/kg.

Which ED50 does the source give for `OC(c1cc(-c2ccc(F)cc2)c(-c2ccc(F)cc2)s1)(C(F)F)C(F)(F)F` (stereo not drawn) [Example 9] here?
The ED50 was 18 mg/kg.

`OC(c1cc(-c2ccc(F)cc2)c(-c2ccc(F)cc2)s1)(C(F)(F)F)C(F)(F)Cl` (stereo not drawn) [Example 10, 4,5-Bis(4-fluorophenyl)-α-chlorodifluoromethyl-α-trifluoromethyl-2-thiophenemethanol] was tested. Which ED50 did it give?
The ED50 was 6.8 mg/kg.

`Cc1c(C(O)(C(F)(F)Cl)C(F)(F)Cl)sc(-c2ccc(F)cc2)c1-c1ccc(F)cc1` [Example 27, 3-Methyl-4,5-bis(4-fluorophenyl)-α,α-bis(chlorodifluoromethyl)-2-thiophenemethanol] was tested. Which ED50 did it give?
The ED50 was 12 mg/kg.

With `CCCCC1C(=O)N(c2ccccc2)N(c2ccccc2)C1=O` [Phenylbutazone, reference compound] as the compound, how does the ED50 read?
Its ED50 is 10 mg/kg.

same assay, conditions: Rattus norvegicus, po, 168 h, read-out: ED50% Decrease From Control Paw Volume

How did the ED50 turn out when `CC(=O)Oc1ccccc1C(=O)O` [Aspirin, reference compound] was run?
Its ED50 is 270 mg/kg.

Which ED50 does the source give for `COc1ccc2c(c1)c(CC(=O)O)c(C)n2C(=O)c1ccc(Cl)cc1` [Indomethacin, reference compound] here?
The ED50 was 0.25 mg/kg.

same assay, conditions: daily oral dose 27 mg/kg, 7 days; established adjuvant-induced arthritis, rats; p < 0.1 (Ex. 2), p < 0.001 (Ex. 3) vs control, Student's t test

For `OC(c1cc(-c2ccc(F)cc2)c(-c2ccc(F)cc2)s1)(C(F)(F)Cl)C(F)(Cl)Cl` (stereo not drawn) [Example 2], which “Percent Decrease From Control Paw Volume” value is on record?
The value was 20%.

Which “Percent Decrease From Control Paw Volume” value does the source give for `COc1ccc(-c2cc(C(O)(C(F)(F)F)C(F)(F)F)sc2-c2ccc(OC)cc2)cc1` [Example 3] here?
Its value is 47%.

same assay, conditions: daily oral dose 51 mg/kg, 7 days; established adjuvant-induced arthritis, rats; p < 0.001 vs control, Student's t test

Which “Percent Decrease From Control Paw Volume” value does the source give for `CC(=O)OC(c1cc(-c2ccc(F)cc2)c(-c2ccc(F)cc2)s1)(C(F)(F)Cl)C(F)(F)Cl` [Example 29, 4,5-Bis(4-fluorophenyl)-α,α-bis(chlorodifluoromethyl)-2-thiophenemethanol, acetate] here?
The value was 31%.
